The source of these data is patent publication US5773005A, “Purified flavonoid and diterpene 5α-reductase inhibitors from thuja orientalis for androgen-related diseases” (priority 1995, dated 1998).

One assay deals with acne patients. The experiment in a line: Treatment of acne patients with diterpene lotion, scored (Example 9). The class given is in vivo, human. To be noted: lotion with 1% diterpene, twice a day, group score of 6 patients (3 cured completely, 2 half cured, 1 cured 30%, 0 not cured), highest 18; for Score, 1 mo.: 1 month; for Score, 2 mo.: 2 months. The method, then:
Patients in their twenties who were suffering from acne were divided into five groups each consisting of 3 males and 3 females and treated with a lotion of the following formula prepared in accordance with the invention. |Ethanol 50% |1,3-Butylene glycol | 20% |HCO-60 3% |Diterpene 1% |Purified water 26% The lotion was applied to the diseased part of a patient's face after washing with takallophene soap and the treatment was conducted daily on a twice-a-day basis for a period of 2 months. The acne in each patient was diagnosed as being moderate and a mixture of comedones (primarily whiteheads), papules and pustules. The results were evaluated by the following criteria: 3, cured completely; 2, half cured; 1, cured 30%; 0, not cured. The highest score was 18 and the lowest score was 0.

Assay [1] deals with male pattern baldness in stage V. The experiment in a line: Therapeutic effect on male pattern baldness in stage V, scored (Example 10). It is filed as in vivo, human. More on the design: key: 10: alopecic area decreased to 1/5 or less and hair density increased by 2/3 or more; 7: alopecic area decreased to 1/3 or less and hair density increased by 1/3 or more; 4: alopecic area decreased to 1/2 or less and hair density increased by 1/5 or more; alopecic area decreased by 20% and hair density increased by 10% or more; 1: alopecic area hardly changed but hair density increased definitely; 0: no change at all. Particulars: formula with 1% diterpene, twice a day; for Score, 0 mo.: 0 months; for Score, 1 mo.: 1 month; for Score, 2 mo.: 2 months; for Score, 4 mo.: 4 months; for Score, 6 mo.: 6 months. The method, then: Diterpenes of the invention were evaluated for their therapeutic effects on male pattern baldness in stage V. The curatives were prepared in accordance with the formula set forth in Table 11. | Ethanol 50% | Propylene glycol | 10% | HCO-60 3% | Diterpene 1% | Purified water | 36% The curatives were applied to the bald area of male volunteers (aged 27-45) in five groups each consisting of 5 cases. The application was done daily on a twice-a-day basis and continued for 6 months. The therapeutic efficacy was evaluated by the following criteria based on the decrease in the area of the parietal alopecic lesion and the density of regrowing hairs: 10 (alopecic area decreased to 1/5 or less and hair density increased by 2/3 or more); 7 (alopecic area decreased to 1/3 or less and hair density increased by 1/3 or more); 4 (alopecic area decreased to 1/2 or less and hair density increased by 1/5 or more); 2 (alopecic area decreased by 20% and hair density increased by 10% or more); 1 (alopecic area hardly changed but hair density increased definitely); 0 (no change at all).

The test system of another assay is male hirsute volunteers. Put plainly: Suppression of hair regrowth in male hirsute volunteers, wax-depilated inferior limbs (Example 5). The class given is in vivo, human. Particulars: 1% in 50% alcohol.
Assay [2] relates to male pattern baldness in stage V. The experiment in a line: Efficacy against male pattern baldness in stage V, male volunteers (Example 4). The class given is in vivo, human. Particulars: 1% in 50% alcohol, twice a day, 4 months.
Text: The 5α-reductase inhibitors extracted from Thuja orientalis were examined for their efficacy against male pattern baldness in stage V. The test samples were components A, B and C, as well as the terpenoid isolated from component A and the (iso)scutellarein isolated from component B, which were each dissolved at a concentration of 1% in 50% alcohol. These samples were daily applied on a twice-a-day basis for a period of 4 months to the bald heads of 27-45 year old male volunteers in five groups each consisting of 5 cases.
Assay [3] concerns women suffering from idiopathic hirtuism. The experiment in a line: Women suffering from idiopathic hirsutism, depilated right forearm (Example 14). It is filed as in vivo, human. Particulars: 0.1% in 50% ethanol, twice a day. The method, then: Five women (aged 20-35) suffering from idiopathic hirtuism were treated with 0.1% trans-communic acid in 50% ethanol that was applied daily to a wax depilated area of the right forearm on a twice-a-day basis. Depilation was repeated every other month until the end of the experiment.
Measurements were conducted on the hairs attached to the cloth used for wax depilation.

The test system of assay [4] is androgen-dependent human prostatic cancer strain HONDA. The experiment in a line: Growth control of androgen-dependent human prostatic cancer strain HONDA in nude mice (Example 15). The class given is in vivo, human (transplanted in BALB/CA-nu/nu mice). Particulars: once a day, 28 days; for control of tumor growth (HONDA): peroral in 0.5% CMC. The method, then:
Seven-week old BALB/CA-nu/nu mice were transplanted with androgen-dependenthuman prostatic cancer strain HONDA beneath the dorsal skin and 6-week old BALB/CA-nu/nu mice were transplanted with androgen-dependent rat prostatic cancer strain […] beneath the dorsal skin. When the respective tumors grew to a specified size, the animals were divided into test and control groups. The test groups were administered with suspensions of trans-communic acid and flutamide in 0.5% CMC. The control groups were administered with 0.5% CMC alone. The drugs and the vehicle were administered perorally via an oral probe. The administration was repeated daily for 28 consecutive days on a once-a-day basis. The tumor volume (mm^3) was calculated by the formula of major axis (mm) × the square of minor axis (mm^2)/2.

For assay [5], the system named is androgen-dependent rat prostatic cancer strain R3327-G. The experiment in a line: Growth control of androgen-dependent rat prostatic cancer strain R3327-G in nude mice (Example 15). To be noted: castrated mice given 25 mg testosterone enanthat per head; peroral, once a day, 28 days. It is filed as in vivo, rat (transplanted in BALB/CA-nu/nu mice). How it is done:
Seven-week old BALB/CA-nu/nu mice were transplanted with androgen-dependenthuman prostatic cancer strain HONDA beneath the dorsal skin and 6-week old BALB/CA-nu/nu mice were transplanted with androgen-dependent rat prostatic cancer strain R3327-G beneath the dorsal skin. When the respective tumors grew to a specified size, the animals were divided into test and control groups. The test groups were administered with suspensions of trans-communic acid and flutamide in 0.5% CMC. The control groups were administered with 0.5% CMC alone. The drugs and the vehicle were administered perorally via an oral probe. The administration was repeated daily for 28 consecutive days on a once-a-day basis. The tumor volume (mm^3) was calculated by the formula of major axis (mm) × the square of minor axis (mm^2)/2.
The growth of cancer strain R3327-G was not controlled in castrated mice when they were administered 25 mg of testosterone enanthat per head concurrently with the cancer transplantation.

For a further assay, the system named is hirsute male volunteers. The experiment in a line: Hair regrowth on wax-depilated legs of hirsute male volunteers (Example 13). It is filed as in vivo, human. To be noted: 0.1% in 50% ethanol, twice a day, 3 months, control section indistinguishable from surrounding area. The method, then: An experiment was conducted on 5 hirsute male volunteers aged 25-48. The center of each straight leg was depilated with wax to create a lesion about 2 cm wide and 3 cm long. […] The application was done daily on a twice-a-day basis for 3 consecutive months.

For the compound `C=C/C(C)=C/CC1C(=C)CCC2C(C)(CO)CCCC12C` (stereo not drawn) [Sample III, (E)8(17),12,14-labdatrien-19-ol], in the assay with acne patients, the “Score, 1 mo.” value came out at 9 and the “Score, 2 mo.” value stood at 18. Besides, in assay [1], the “Score, 0 mo.” value turned out to be 0; the “Score, 1 mo.” value is listed as 0; the “Score, 2 mo.” value is 4; the “Score, 4 mo.” value amounted to 7. The “Score, 6 mo.” value in assay [1] is reported as 10.

For (iso)scutellarein, the “regrowth of hair as compared to the control section” value with male hirsute volunteers (topical, control 50% alcohol alone) is “significantly suppressed”. Besides, the “regrowth of hair in the test sections when the experiment ended” value in the assay with male hirsute volunteers (3 months) is reported as “barely recognizable”. Also, the regrowth of hair result in assay [2] was “pronounced regrowth of hair”.

With `C=C/C(C)=C/CC1C(=C)CCC2C(C)(C(=O)O)CCCC12C` (stereo not drawn) [Sample I, (E)8(17),12,14-labdatrien-19-oic acid], the “Hair length (peaked at), sixth measurement, case A” value in assay [3] (case A, before treatment: peaked at ca. 10 mm) was “ca. 10 mm”. Moreover, the “Hair density, sixth measurement, case A” value in assay [3] (case A, before treatment: thick) is listed as “sparse”. In assay [3] (case B, before treatment: peaked at ca. 6 mm), the “Hair length, sixth measurement, case B” value is “ca. 1 mm”. Moreover, the “Hair density, sixth measurement, case B” value in assay [3] (case B, before treatment: thick) is “a few”. Also, the “Hair length, sixth measurement, case D” value in assay [3] (case D, before treatment: peaked at ca. 8 mm) is recorded as “ca. 2 mm”. Moreover, the “Hair density, sixth measurement, case D” value in assay [3] (case D, before treatment: thick) is “a few”. Besides, in the assay with acne patients, the “Score, 1 mo.” value is 8 and the “Score, 2 mo.” value is 18. In addition, in assay [4], the “control of tumor growth (HONDA)” value is on record as “could control the growth of this cancer significantly in a dose-dependent manner”. Moreover, in assay [4] (trans-communic acid 20 mg/kg, peroral), the “tumor size at 20 mg/kg vs flutamide 200 mg/kg (HONDA)” value is on record as “almost comparable to that of the group administered with 200 mg/kg of flutamide”. Further, in assay [1], the “Score, 0 mo.” value was found to be 0; the “Score, 1 mo.” value is 1; the “Score, 2 mo.” value is 4; the “Score, 4 mo.” value came to 7. Further, the “Score, 6 mo.” value in assay [1] is 10. In addition, in assay [5], the “control of tumor growth (R3327-G)” value is recorded as “could effectively control the growth of cancer in a dose-dependent manner” and the “efficacy relative to flutamide (R3327-G)” value was “considerably stronger than that of flutamide”. The “Regrowth of hair, test section, case A” value in the assay on hirsute male volunteers (case A) is recorded as “No regrowth of hair”. Moreover, the “Regrowth of hair, test section, case B” value with hirsute male volunteers (case B) was “No regrowth of hair”. For the same compound, the “Regrowth of hair, test section, case C” value with hirsute male volunteers (case C) is listed as “Regrowth of a few hair”. Also, the “Regrowth of hair, test section, case D” value in the assay on hirsute male volunteers (case D) is given as “No regrowth of hair”. Also, the “Regrowth of hair, test section, case E” value with hirsute male volunteers (case E) is “No regrowth of hair”.

As for `C=C/C(C)=C/CC1C(=C)CCC2C(C)(C)CCCC12C` (stereo not drawn) [Sample II, (E)8(17),12,14-labdatriene], in the assay with acne patients, the “Score, 1 mo.” value was found to be 10 and the “Score, 2 mo.” value is 18. For the same compound, in assay [1], the “Score, 0 mo.” value turned out to be 0; the “Score, 1 mo.” value was determined as 1; the “Score, 2 mo.” value is 4; the “Score, 4 mo.” value is 7. In addition, in assay [1], the “Score, 6 mo.” value is reported as 10.

Consider `CC(C)C(=O)Nc1ccc([N+](=O)[O-])c(C(F)(F)F)c1` [Flutamide, reference compound], for which, in the assay with acne patients, the “Score, 1 mo.” value was determined as 4 and the “Score, 2 mo.” value stood at 8. Moreover, in assay [4], the “control of tumor growth (HONDA)” value is given as “effective in tumor control”. Further, the “efficacy of flutamide relative to trans-communic acid (HONDA)” value in assay [4] (peroral) is reported as “considerably weaker than that of trans-communic acid”. Also, in assay [1], the “Score, 0 mo.” value turned out to be 0; the “Score, 1 mo.” value worked out at 1; the “Score, 2 mo.” value is listed as 2; the “Score, 4 mo.” value stood at 2. For the same compound, the “Score, 6 mo.” value in assay [1] came to 4.
